# Test results as given in the Deep4Chem optical property database.
# Assay: photoluminescence quantum yield (fraction); solvent given as SMILES
smiles,measurement,setting,value
CCOC(=O)C1=C(N)n2c(=O)c3ccccc3c(=O)n2C1c1ccccc1 (configuration not stated),photoluminescence quantum yield,in CS(C)=O,0.136
CC1=C(c2ccccc2)C(C)=[N+]2C1=C(c1c(-c3ccccn3)nc3ccccn13)c1c(C)c(-c3ccccc3)c(C)n1[B-]2(F)F,photoluminescence quantum yield,in ClCCl,0.785
c1ccc(-c2nnc(-c3cc(-n4c5ccccc5c5ccccc54)c(-n4c5ccccc5c5ccccc54)cc3-c3nnc(-c4ccccc4)o3)o2)cc1,photoluminescence quantum yield,in Cc1ccccc1,0.383
COC(=O)C1=C(C(=O)OC)C2(c3ccccc3-c3c(Br)cc(Br)cc32)C2(/C=C/c3ccccc3)c3cc(OC)c(OC)cc3CCN12 (configuration not stated),photoluminescence quantum yield,in ClCCl,0.00091
O=C(c1ccc(C(=O)c2ccc(N3c4ccccc4Oc4ccccc43)cc2)cc1)c1ccc(N2c3ccccc3Oc3ccccc32)cc1,photoluminescence quantum yield,in Cc1ccccc1,0.1
same,photoluminescence quantum yield,in c1cc(-c2cccc(-n3c4ccccc4c4ccccc43)c2)cc(-n2c3ccccc3c3ccccc32)c1,0.36
N#Cc1c(C#N)c2cc(Br)ccc2c2ccc(Br)cc12,photoluminescence quantum yield,in ClC(Cl)Cl,0.01
CC(C)CN1C(=O)/C(=C/c2ccc([N+](=O)[O-])cc2)C=C1c1ccccc1,photoluminescence quantum yield,in C1COCCO1,0.033
COc1ccc(/C=C2\OC(=O)c3ccccc32)cc1,photoluminescence quantum yield,in CC(C)=O,0.01
same,photoluminescence quantum yield,in CC(C)CO,0.07
same,photoluminescence quantum yield,in CC(C)O,0.1
same,photoluminescence quantum yield,in CCCO,0.13
same,photoluminescence quantum yield,in CCO,0.14
same,photoluminescence quantum yield,in CCOC(C)=O,0.008
same,photoluminescence quantum yield,in CCOCC,0.001
same,photoluminescence quantum yield,in CO,0.14
CCCCCCCCCCCCC(CCCCCCCCCC)Cn1c2cc(C=C(C#N)C#N)c3cccc4c5cccc6c(C=C(C#N)C#N)cc1c(c65)c2c34 (configuration not stated),photoluminescence quantum yield,in C1CCCCC1,0.13
same,photoluminescence quantum yield,in CC#N,0.151
same,photoluminescence quantum yield,in Cc1ccccc1,0.138
same,photoluminescence quantum yield,in ClCCl,0.115
COc1ccc(C2C3=C(CCCC3=O)Nc3c2c(=O)oc2ccccc32)cc1 (configuration not stated),photoluminescence quantum yield,in CS(C)=O,0.26
CCN(CC)c1ccc(C2=C3C(C)=CC(C)=[N+]3[B-](F)(F)n3c(C)cc(C)c32)cc1,photoluminescence quantum yield,in CO,0.56
Cc1ccsc1-c1ccc(-c2ccc(-c3sccc3C)s2)s1,photoluminescence quantum yield,in CCC(C)C,0.19
[NH3+]c1cc([NH3+])cc(-c2nc3ccccc3s2)c1,photoluminescence quantum yield,in O,0.011
N#CC(C#N)=Cc1ccc2nc(C#Cc3ccc(N(c4ccccc4)c4ccccc4)cc3)sc2c1,photoluminescence quantum yield,in Cc1ccccc1,0.47
Cc1nn(-c2ccccc2)c(C2=NN(c3ccc(Br)cc3)[C@@H](c3ccccc3)[C@@H]2c2ccccc2)c1C#N,photoluminescence quantum yield,in C1CCCCC1,0.56
same,photoluminescence quantum yield,in C1CCOC1,0.65
same,photoluminescence quantum yield,in C1COCCO1,0.6
same,photoluminescence quantum yield,in CC#N,0.41
same,photoluminescence quantum yield,in CCCCCCC,0.43
same,photoluminescence quantum yield,in CCO,0.49
same,photoluminescence quantum yield,in CN(C)C=O,0.6
same,photoluminescence quantum yield,in CO,0.34
same,photoluminescence quantum yield,in O,0.18
same,photoluminescence quantum yield,in OCCO,0.45
CCC1=C(C2=C(C3=C(CC)S(=O)(=O)c4cc(-c5ccc(CO)cc5)ccc43)C(F)(F)C(F)(F)C2(F)F)c2ccc(-c3ccc(CO)cc3)cc2S1(=O)=O,photoluminescence quantum yield,in C1COCCO1,0
CC1(C)C(/C=C/C2=C(Oc3ccc(CCN=C=S)cc3I)C(=C/C=C3/N(CCCS(=O)(=O)[O-])c4ccccc4C3(C)C)/CCC2)=[N+](CCCS(=O)(=O)[O-])c2ccccc21,photoluminescence quantum yield,in CO,0.15
Cc1oc(C)c2c1C=C(C=O)CC(C=O)=C2,photoluminescence quantum yield,in ClC(Cl)Cl,0
CC(C)(C)c1ccc(-c2cc3c(-c4ccc(C(C)(C)C)cc4)c4cccc5c(-c6ccc(C(C)(C)C)cc6)cc6c(-c7ccc(C(C)(C)C)cc7)c7cccc2c7c3c6c54)cc1,photoluminescence quantum yield,in C1CCCCC1,0.23
same,photoluminescence quantum yield,in CC#N,0.2
same,photoluminescence quantum yield,in CO,0.21
same,photoluminescence quantum yield,in Cc1ccccc1,0.41
same,photoluminescence quantum yield,in ClCCl,0.27
CCCCCCc1ccc2c3c(ccc2c1)O[B-](F)(F)[N+](c1cc([N+]2=Cc4c(ccc5cc(CCCCCC)ccc45)O[B-]2(F)F)cc([N+]2=Cc4c(ccc5cc(CCCCCC)ccc45)O[B-]2(F)F)c1)=C3,photoluminescence quantum yield,in C1CCOC1,0.26
same,photoluminescence quantum yield,in CC#N,0.18
same,photoluminescence quantum yield,in Cc1ccccc1,0.48
same,photoluminescence quantum yield,in ClCCl,0.44
CCCCCCCCN1c2ccc(C#Cc3ccc(OC)cc3)cc2Sc2cc(C=O)ccc21,photoluminescence quantum yield,in C1CCOC1,0.54
same,photoluminescence quantum yield,in CC#N,0.34
same,photoluminescence quantum yield,in CCCCCC,0.59
same,photoluminescence quantum yield,in CO,0.07
same,photoluminescence quantum yield,in CS(C)=O,0.91
same,photoluminescence quantum yield,in Cc1ccccc1,0.49
same,photoluminescence quantum yield,in ClC(Cl)Cl,0.58
CC1=CC(C)=[N+]2C1=C(C1=C3C(C)=CC(C)=[N+]3[B-](F)(F)n3c(C)cc(C)c31)c1c(C)cc(C)n1[B-]2(F)F,photoluminescence quantum yield,in ClC(Cl)Cl,0.31
CC(C)CCC[C@@H](C)[C@H]1CC[C@H]2[C@@H]3CC=C4C[C@@H](OC(=O)Oc5cc(/C=C/c6ccc(N(C)C)cc6)ccc5[N+](=O)[O-])CC[C@]4(C)[C@H]3CC[C@]12C,photoluminescence quantum yield,in C1CCCCC1,0.29
same,photoluminescence quantum yield,in C1COCCO1,0.09
same,photoluminescence quantum yield,in CCCCCCC,0.29
same,photoluminescence quantum yield,in Cc1ccccc1,0.18
COc1nc(Nc2ccc3c4c(cccc24)C(=O)c2ccccc2-3)nc(OC)n1,photoluminescence quantum yield,in CC#N,0.59
same,photoluminescence quantum yield,in CC(C)=O,0.66
same,photoluminescence quantum yield,in CC(C)O,0.38
same,photoluminescence quantum yield,in CCCCOCCCC,0.22
same,photoluminescence quantum yield,in CCOC(C)=O,0.58
same,photoluminescence quantum yield,in CCOCC,0.39
same,photoluminescence quantum yield,in CO,0.3
same,photoluminescence quantum yield,in Cc1ccccc1,0.56
same,photoluminescence quantum yield,in Clc1ccccc1,0.66
same,photoluminescence quantum yield,in N#Cc1ccccc1,0.64
same,photoluminescence quantum yield,in O=C1CCCCC1,0.67
O=C1c2ccc(-c3ccc(N(c4ccccc4)c4ccccc4)cc3)cc2S(=O)(=O)c2cccc(-c3ccc(N(c4ccccc4)c4ccccc4)cc3)c21,photoluminescence quantum yield,in c1ccc2c(c1)c1ccccc1n2-c1ccc(-c2ccc(-n3c4ccccc4c4ccccc43)cc2)cc1,0.04
CC(C)c1ccc2ccc3cccc4ccc1c2c34,photoluminescence quantum yield,in CCCCCC,0.21
same,photoluminescence quantum yield,in CO,0.24
same,photoluminescence quantum yield,in ClCCl,0.41
O=c1c2cc(C#Cc3ccc(Cl)cc3)ccc2nc2ccc(C#Cc3ccc(Cl)cc3)cn12,photoluminescence quantum yield,in ClCCl,0.33
c1ccc(Nc2nc(Nc3ccccc3)nc(Nc3ccc4c5cccc6cccc(c7cccc3c74)c65)n2)cc1,photoluminescence quantum yield,in C1COCCO1,0.52
same,photoluminescence quantum yield,in CC#N,0.42
same,photoluminescence quantum yield,in CCCCOCCCC,0.5
same,photoluminescence quantum yield,in CCOC(C)=O,0.44
CC(C)(C)c1ccc2c(c1)sc1[n+]2[B-](F)(F)n2c(c3cccc4cccc2c43)=C1C#N,photoluminescence quantum yield,in C1CCOC1,0.67
same,photoluminescence quantum yield,in CC#N,0.74
same,photoluminescence quantum yield,in CCCCCC,0.68
same,photoluminescence quantum yield,in Cc1ccccc1,0.69
same,photoluminescence quantum yield,in ClCCl,0.7
Cc1ccc(/C2=c3\cc/c(o3)=C(\c3ccc(C)cc3)c3ccc([nH]3)-c3ccc4n3[B-](F)(F)[N+]3=C(C=CC3=C4c3ccc[nH]3)c3ccc2[nH]3)cc1,photoluminescence quantum yield,in ClC(Cl)Cl,0.12
CC(C)(C)c1ccc(-c2c3c(c(-c4ccccc4)c4cc5ccccc5cc24)Cc2c(c(-c4ccccc4)c4cc5ccccc5cc4c2-c2ccc(C(C)(C)C)cc2)C3)cc1,photoluminescence quantum yield,in ClCCl,0.16
F[B-]1(F)n2c(-c3ccccc3)c3ccc4ccccc4c3c2N=C2c3c(ccc4ccccc34)C(c3ccccc3)=[N+]21,photoluminescence quantum yield,in ClCCl,0.14
CCCCCCN1C(=O)c2cccc3c(-c4ccc(-c5ccc6c7c(cccc57)C(=O)N(CCCCCC)C6=O)s4)ccc(c23)C1=O,photoluminescence quantum yield,in ClC(Cl)Cl,0.15
C(=C\c1ccc(N(c2ccccc2)c2ccccc2)cc1)/c1ccc(-c2ccc(/C=C/c3ccc(N(c4ccccc4)c4ccccc4)cc3)cc2)cc1,photoluminescence quantum yield,in ClCCl,0.86
c1ccc(-c2nc(-c3ccc(N4c5ccccc5C(c5ccccc5)(c5ccccc5)c5ccccc54)cc3)cc(-c3ccc(N4c5ccccc5C(c5ccccc5)(c5ccccc5)c5ccccc54)cc3)n2)cc1,photoluminescence quantum yield,in Cc1ccccc1,0.5
same,photoluminescence quantum yield,in O=P(c1ccccc1)(c1ccccc1)c1ccc2oc3ccc(P(=O)(c4ccccc4)c4ccccc4)cc3c2c1,0.94
C=CCNc1ccc2ccc3oc4cc(=O)ccc-4nc3c2c1,photoluminescence quantum yield,in CC#N,0.03
same,photoluminescence quantum yield,in CCO,0.04
same,photoluminescence quantum yield,in ClCCl,0.06
same,photoluminescence quantum yield,in O,0.007
C(=C\c1ncc2ccccc2n1)/c1ccc(N2CCCCC2)cc1,photoluminescence quantum yield,in ClCCl,0.21
CC(C)Oc1ccc(C#Cc2cc3ccccc3oc2=O)cc1,photoluminescence quantum yield,in CC#N,0.43
C=C[Si](c1c2ccccc2cc2ccccc12)(c1c2ccccc2cc2ccccc12)c1c2ccccc2cc2ccccc12,photoluminescence quantum yield,in ClC(Cl)Cl,0.017
CCOC(=O)/C(C#N)=C\c1ccc2c(c1)c1ccccc1n2-c1ccc(C)cc1,photoluminescence quantum yield,in C1CCOC1,0.09
same,photoluminescence quantum yield,in CC#N,0.01
same,photoluminescence quantum yield,in CC(C)=O,0.025
same,photoluminescence quantum yield,in CCOC(C)=O,0.11
same,photoluminescence quantum yield,in CO,0.06
same,photoluminescence quantum yield,in CS(C)=O,0.04
same,photoluminescence quantum yield,in Cc1ccccc1,0.095
same,photoluminescence quantum yield,in ClC(Cl)Cl,0.08
CCCC1(CCC)c2cc(-c3ccc(C(C)(C)C)cc3)ccc2-c2ccc(-c3ccc4c(c3)C(CCC)(CCC)c3cc(-c5ccc6c(c5)C(CCC)(CCC)c5cc(-c7ccc8c(c7)C(CCC)(CCC)c7cc(-c9ccc(C(C)(C)C)cc9)ccc7-8)ccc5-6)ccc3-4)cc21,photoluminescence quantum yield,in C1CCCCC1,1
